The source made the active and inactive calls. The rule behind the calls is not given here.
Tests used:
[1] = (§1) Hepatotoxicity in Balb/c mouse infected with Trypanosoma cruzi MHOM/Pe/2011/Arequipa DTU 5 trypomastigotes assessed as increase in ratio of serum AST to GOT level at 20 mg/kg, po once daily for 5 consecutive days starting from day 75 post infection measured on day 81 post infection by biochemical analysis relative to control; format: toxicity, organism-based; details: in vivo
[2] = as §1, with “ALT” for “AST”, “GPT” for “GOT”, “infection” for “infection by biochemical analysis”; format: toxicity, organism-based; details: in vivo
[3] = Hepatotoxicity in Balb/c mouse infected with Trypanosoma cruzi MHOM/Pe/2011/Arequipa DTU 5 trypomastigotes assessed as increase in total bilirubin level at 20 mg/kg, po once daily for 5 consecutive days starting from day 75 post infection measured on day 127 post infection relative to control; format: toxicity, organism-based; details: in vivo
[4] = Hepatotoxicity in Balb/c mouse infected with Trypanosoma cruzi MHOM/Pe/2011/Arequipa DTU 5 trypomastigotes assessed as increase in alkaline phosphatase level at 20 mg/kg, po once daily for 5 consecutive days starting from day 75 post infection measured on day 127 post infection relative to control; format: toxicity, organism-based; details: in vivo
Trypanosoma cruzi [5] = assay: (§2) Antitrypanosomal activity against Trypanosoma cruzi MHOM/Pe/2011/Arequipa DTU 5 trypomastigotes infected in Balb/c mouse assessed as reduction in parasitaemia level at 20 mg/kg, po once daily for 5 consecutive days starting from day 10 post infection measured on day 40 post infection by Neubauer chamber method; format: functional, organism-based
Trypanosoma cruzi [6] = assay: (§3) Antitrypanosomal activity against Trypanosoma cruzi MHOM/Pe/2011/Arequipa DTU 5 trypomastigotes infected in Balb/c mouse assessed as parasite-free lungs at 20 mg/kg, po pretreated once daily for 5 consecutive days starting from day 75 post infection followed by cyclophosphamide-induced immunosuppression on day 100 post infection every 4 days for a maximum of 3 doses measured on day 127 post infection by PCR method; format: functional, organism-based
Trypanosoma cruzi [7] = assay: as §3, with “muscle” for “lungs”; format: functional, organism-based
Trypanosoma cruzi [8] = assay: as §3, with “stomach” for “lungs”; format: functional, organism-based
[9] = as §1, with “Cardiotoxicity” for “Hepatotoxicity”, “decrease” for “increase”, “creatine kinase in muscle” for “serum AST”, “brain” for “GOT level”, “10” for “75”, “16” for “81”; format: toxicity, organism-based; parameters: scale not given: the % may be the effect or the level left; details: in vivo
[10] = as §1, with “Cardiotoxicity” for “Hepatotoxicity”, “decrease” for “increase”, “in” for “in ratio of”, “LDH” for “AST to GOT”, “10” for “75”, “16” for “81”; format: toxicity, organism-based; parameters: scale not given: the % may be the effect or the level left; details: in vivo
[11] = (§4) Hepatotoxicity in Balb/c mouse infected with Trypanosoma cruzi MHOM/Pe/2011/Arequipa DTU 5 trypomastigotes assessed as change in total bilirubin level at 20 mg/kg, po once daily for 5 consecutive days starting from day 75 post infection measured on day 81 post infection (reference value: 0.25 mg/dl); format: toxicity, organism-based; details: in vivo
[12] = Hepatotoxicity in Balb/c mouse infected with Trypanosoma cruzi MHOM/Pe/2011/Arequipa DTU 5 trypomastigotes assessed as decrease in alkaline phosphatase level at 20 mg/kg, po once daily for 5 consecutive days starting from day 10 post infection measured on day 127 post infection by biochemical analysis relative to control; format: toxicity, organism-based; parameters: scale not given: the % may be the effect or the level left; details: in vivo
[13] = as §4, with “alkaline phosphatase” for “total bilirubin”, “167 U/L)” for “0.25 mg/dl)”; format: toxicity, organism-based; details: in vivo
Trypanosoma cruzi [14] = assay: Trypanocidal activity against Trypanosoma cruzi MHOM/Pe/2011/Arequipa DTU 5 amastigotes infected in African green monkey Vero cells assessed as infected cells at 50 uM after 72 hrs by Giemsa-staining based assay relative to control; format: functional
Trypanosoma cruzi [15] = assay: as §2, with “measured every 2 to 3 days up to” for “measured on”, “day 50 post infection starting from day 7” for “day 40”; format: functional, organism-based
[16] = Nephrotoxicity in Balb/c mouse infected with Trypanosoma cruzi MHOM/Pe/2011/Arequipa DTU 5 trypomastigotes assessed as serum uric acid level at 20 mg/kg, po once daily for 5 consecutive days starting from day 75 post infection measured on day 127 post infection (reference value: 4.8 mg/dl); format: toxicity, organism-based; details: in vivo
[17] = as §4, with “Cardiotoxicity” for “Hepatotoxicity”, “ratio of creatine kinase in muscle to brain” for “total bilirubin level”, “751 U/L)” for “0.25 mg/dl)”; format: toxicity, organism-based; details: in vivo
[18] = Cardiotoxicity in Balb/c mouse infected with Trypanosoma cruzi MHOM/Pe/2011/Arequipa DTU 5 trypomastigotes assessed as change in serum LDH level at 20 mg/kg, po once daily for 5 consecutive days starting from day 75 post infection measured on day 127 post infection (reference value: 6679 U/L); format: toxicity, organism-based; details: in vivo
[19] = as §1, with “decrease” for “increase”, “10” for “75”, “16” for “81”, “infection” for “infection by biochemical analysis”; format: toxicity, organism-based; parameters: scale not given: the % may be the effect or the level left; details: in vivo
[20] = as §1, with “ALT” for “AST”, “GPT” for “GOT”, “10” for “75”, “127” for “81”; format: toxicity, organism-based; details: in vivo
Trypanosoma cruzi [21] = assay: Inhibition of Trypanosoma cruzi MHOM/Pe/2011/Arequipa DTU 5 epimastigotes Fe-SOD at 50 uM by UV-Visible spectrophotometric method relative to control

O=C(Cn1ccnc1[N+](=O)[O-])NCc1ccccc1 [BENZNIDAZOLE]
Activity [1]: <= 20% | Activity [2]: <= 20% | Activity [3]: <= 20% | Activity [4]: <= 20%

Cl.Cl.Cl.NCCN(CCN)CCNCc1ccc2c(c1)Cc1ccccc1-2
Activity (Trypanosoma cruzi [5]): Active | Activity (Trypanosoma cruzi [6]): Active | Activity (Trypanosoma cruzi [7]): Active | Activity (Trypanosoma cruzi [8]): Active | Activity [9]: <= 10% | Activity [10]: <= 10% | Activity [11]: 0.25 mg/dL | Activity [12]: <= 10% | Activity [13]: 167 U/L

Cl.Cl.Cl.Cl.Cl.Cl.c1ccc2nc(CNCCN(CCNCc3ccc4ccccc4n3)CCNCc3ccc4ccccc4n3)ccc2c1
Activity (Trypanosoma cruzi [14]): 0% | Activity (Trypanosoma cruzi [15]): inactive | Activity [16]: 4.8 mg/dL | Activity [17]: 751 U/L | Activity [18]: 6679 U/L | Activity [19]: <= 10% | Activity [20]: <= 30% | inhibition (Trypanosoma cruzi [21]): 82%
